Laboratory results taken from patent US9771352B2, “Hydroxyalkyl-substituted phenyltriazole derivatives and uses thereof” (BAYER PHARMA AKTIENGESELLSCHAFT, priority 2014, dated 2017).

Legend:
human V1a receptor = target: T1, human V1a receptor (Homo sapiens, UniProt P37288); assay: Cellular in vitro assay for determining vasopressin receptor activity, V1a receptor cell line (photoprotein luminescence); type: cell-based; conditions: CHO cell line transfected with human V1a receptor; [Arg8]-vasopressin at EC50; compounds of the invention (Table 1A); read-out: IC50 hV1a
T1 construct: expressed in transfected cells; host or cells: CHO K1 (ATCC), also stably transfected with modified aequorin
T1 sequence (P37288 whole entry): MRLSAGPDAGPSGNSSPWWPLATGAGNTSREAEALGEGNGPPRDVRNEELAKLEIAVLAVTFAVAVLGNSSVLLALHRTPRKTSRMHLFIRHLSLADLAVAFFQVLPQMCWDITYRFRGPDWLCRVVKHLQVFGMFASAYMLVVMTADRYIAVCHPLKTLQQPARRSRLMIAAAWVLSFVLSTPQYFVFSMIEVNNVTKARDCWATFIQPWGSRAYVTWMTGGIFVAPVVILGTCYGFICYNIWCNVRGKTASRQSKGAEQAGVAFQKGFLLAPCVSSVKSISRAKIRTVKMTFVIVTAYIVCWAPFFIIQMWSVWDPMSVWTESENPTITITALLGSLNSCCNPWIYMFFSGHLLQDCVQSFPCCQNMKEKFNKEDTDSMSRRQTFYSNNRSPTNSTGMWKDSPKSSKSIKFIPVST
Procedure: (§1) The identification of agonists and antagonists of the V1a and V2 vasopressin receptors from humans, rats and dogs as well as the quantification of the activity of the compounds of the invention is carried out using recombinant cell lines. These cell lines originally derive from a hamster's ovary epithelial cell (Chinese Hamster Ovary, CHO K1, ATCC: American Type Culture Collection, Manassas, Va. 20108, USA). The test cell lines constitutively express the human, rat or dog V1a or V2 receptors. In case of the […] V1a receptors, cells are also stably transfected with a modified form of the calcium-sensitive photoproteins aequorin (human and rat V1a) or obelin (dog V1a), which, after reconstitution with the cofactor coelenterazine, emit light when there are increases in free calcium concentrations [Rizzuto R, Simpson A W, Brini M, Pozzan T, Nature 358, 325-327 (1992); Illarionov B A, Bondar V S, Illarionova V A, Vysotski E S, Gene 153 (2), 273-274 (1995)]. The resulting vasopressin receptor cells react to stimulation of the recombinantly expressed V1a receptors by intracellular release of calcium ions, which can be quantified by the resulting photoprotein luminescence. The Gs-coupled V2 receptors are stably transfected into cell lines expressing the gene for firefly luciferase under control of a CRE-responsible promoter. Activation of V2 receptors induces the activation of the CRE-responsive promoter via cAMP increase, thereby inducing the expression of firefly luciferase. The light emitted by photoproteins of V1a cell lines as well as the light emitted by firefly luciferase of V2 cell lines corresponds to the activation or inhibition of the respective vasopressin receptor. The bioluminescence of the cell lines is detected using a suitable luminometer [Milligan G, Marshall F, Rees S, Trends in Pharmacological Sciences 17, 235-237 (1996)].
On the day before the assay, the cells are plated out in culture medium (DMEM/F12, 2% FCS, 2 mM glutamine, 10 mM HEPES, 5 μg/ml coelenterazine) in 384-well microtiter plates and kept in a cell incubator (96% humidity, 5% v/v CO2, 37° C.). On the day of the assay, test compounds in various concentrations are placed for 10 minutes in the wells of the microtiter plate before the agonist [Arg^8]-vasopressin at EC50 concentration is added. The resulting light signal is measured immediately in the luminometer.
(§2) Table 1A below lists individual IC50 values for the compounds of the invention (including diastereomeric mixtures as well as separated, enantiopure diastereomers) that were obtained from cell lines transfected with the human V1a or V2 receptor: […]

human V2 receptor = target: T2, human V2 receptor (Homo sapiens, UniProt P30518); assay: Cellular in vitro assay for determining vasopressin receptor activity, V2 receptor cell line (CRE-luciferase); type: cell-based; conditions: CHO cell line transfected with human V2 receptor; [Arg8]-vasopressin at EC50; compounds of the invention (Table 1A); read-out: IC50 hV2
T2 construct: expressed in transfected cells; host or cells: CHO K1 (ATCC) expressing firefly luciferase under a CRE-responsive promoter
T2 sequence (P30518 whole entry): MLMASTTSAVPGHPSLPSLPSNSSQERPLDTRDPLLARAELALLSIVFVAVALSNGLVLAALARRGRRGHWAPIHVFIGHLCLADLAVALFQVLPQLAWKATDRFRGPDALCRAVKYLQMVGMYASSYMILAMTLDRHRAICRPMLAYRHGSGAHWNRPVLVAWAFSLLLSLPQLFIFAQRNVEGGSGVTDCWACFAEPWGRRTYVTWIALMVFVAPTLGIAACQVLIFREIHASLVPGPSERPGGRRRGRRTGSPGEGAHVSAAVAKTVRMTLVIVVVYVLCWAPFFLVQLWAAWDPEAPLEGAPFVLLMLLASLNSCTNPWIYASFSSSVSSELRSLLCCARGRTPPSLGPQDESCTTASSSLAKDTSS
Procedure: as §1
On the day before the assay, the cells are plated out in culture medium (DMEM/F12, 2% FCS, 2 mM glutamine, 10 mM HEPES) in 384-well microtiter plates and kept in a cell incubator (96% humidity, 5% v/v CO2, 37° C.). […] Upon addition of the cell lysis reagent Triton and the substrate luciferin, luminescence of firefly luciferase is measured in a luminometer.
as §2

Structure (SMILES) | IC50 (human V1a receptor) | IC50 (human V2 receptor)
CC(O)c1nc(Cn2nc(-c3ccc(Cl)cc3)n(C[C@H](O)C(F)(F)F)c2=O)nn1-c1ccccc1C(F)(F)F (single isomer, unassigned) [Example 73] | 1.1 nM | 7 nM
CC(O)c1nc(Cn2nc(-c3ccc(Cl)cc3)n(C[C@H](O)C(F)(F)F)c2=O)nn1-c1cc(F)ccc1Cl (mixture of isomers) [Example 58, 2-({1-(2-Chloro-5-fluorophenyl)-5-[(1RS)-1-hydroxyethyl]-1H-1,2,4-triazol-3-yl}methyl)-5-(4-chlorophenyl)-4-[(2S)-3,3,3-trifluoro-2-hydroxypropyl]-2,4-dihydro-3H-1,2,4-triazol-3-one] | 0.2 nM | 1.5 nM
CC(O)c1nc(Cn2nc(-c3ccc(Cl)cc3)n(C[C@H](O)C(F)(F)F)c2=O)nn1-c1cccc(C(F)(F)F)c1 (single isomer, unassigned) [Example 23] | 12.2 nM | 0.9 nM
CC(O)c1nc(Cn2nc(-c3ccc(Cl)cc3)n(C[C@H](O)C(F)(F)F)c2=O)nn1-c1ccccc1F (mixture of isomers) [Example 40, 5-(4-Chlorophenyl)-2-({1-(2-fluorophenyl)-5-[(1RS)-1-hydroxyethyl]-1H-1,2,4-triazol-3-yl}-methyl)-4-[(2S)-3,3,3-trifluoro-2-hydroxypropyl]-2,4-dihydro-3H-1,2,4-triazol-3-one] | 1.5 nM | 7.2 nM
CCc1ccccc1-n1nc(Cn2nc(-c3ccc(Cl)cc3)n(C[C@H](O)C(F)(F)F)c2=O)nc1C(C)O (single isomer, unassigned) [Example 32] | 0.9 nM | 1 nM
COc1ccc(F)cc1-n1nc(Cn2nc(-c3ccc(Cl)cc3)n(C[C@H](O)C(F)(F)F)c2=O)nc1C(C)O (single isomer, unassigned) [Example 38] | 0.6 nM | 0.9 nM
CCc1ccccc1-n1nc(Cn2nc(-c3ccc(Cl)cc3)n(C[C@H](O)C(F)(F)F)c2=O)nc1C(C)O (single isomer, unassigned) [Example 33] | 1.6 nM | 2.3 nM
CC(O)c1nc(Cn2nc(-c3ccc(Cl)cc3)n(C[C@H](O)C(F)(F)F)c2=O)nn1-c1cccc(OC(F)F)c1 (single isomer, unassigned) [Example 57] | 38.2 nM | 8.2 nM
C[C@@H](O)c1nc(Cn2nc(-c3ccc(Cl)cc3)n(C[C@H](O)C(F)(F)F)c2=O)nn1-c1cccc(Cl)c1 [Example 80, 5-(4-Chlorophenyl)-2-({1-(3-chlorophenyl)-5-[(1R)-1-hydroxyethyl]-1H-1,2,4-triazol-3-yl}-methyl)-4-[(2S)-3,3,3-trifluoro-2-hydroxypropyl]-2,4-dihydro-3H-1,2,4-triazol-3-one] | 46.3 nM | 5.1 nM
CC(O)c1nc(Cn2nc(-c3ccc(Cl)cc3)n(C[C@H](O)C(F)(F)F)c2=O)nn1-c1cccc(F)c1F (mixture of isomers) [Example 64, 5-(4-Chlorophenyl)-2-({1-(2,3-difluorophenyl)-5-[(1RS)-1-hydroxyethyl]-1H-1,2,4-triazol-3-yl}-methyl)-4-[(2S)-3,3,3-trifluoro-2-hydroxypropyl]-2,4-dihydro-3H-1,2,4-triazol-3-one] | 8.1 nM | 5.1 nM
CC(O)c1nc(Cn2nc(-c3ccc(Cl)cc3)n(C[C@H](O)C(F)(F)F)c2=O)nn1-c1ccccc1F (single isomer, unassigned) [Example 42] | 5.1 nM | 12.7 nM
CC(O)c1nc(Cn2nc(-c3ccc(Cl)cc3)n(C[C@H](O)C(F)(F)F)c2=O)nn1-c1cccc(Cl)c1F (single isomer, unassigned) [Example 54] | 39.7 nM | 1.6 nM
CC(O)c1nc(Cn2nc(-c3ccc(Cl)cc3)n(C[C@H](O)C(F)(F)F)c2=O)nn1-c1cccc(OC(F)F)c1 (single isomer, unassigned) [Example 56] | 2.4 nM | 1.4 nM
CC(O)c1nc(Cn2nc(-c3ccc(Cl)cc3)n(C[C@H](O)C(F)(F)F)c2=O)nn1-c1cccc(F)c1F (single isomer, unassigned) [Example 66] | 4 nM | 1.9 nM
